# Source: patent US20250057805A1, “METHODS FOR ADDRESSING INJECTION SITE REACTIONS ASSOCIATED WITH THE ADMINISTRATION OF BEVEMIPRETIDE” (Stealth BioTherapeutics Inc., priority 2023, published 2025)
# What was measured:
# [1] = test system: control (non-MRGPRX2 expressing) Chem-1 cells; assay: Calcium mobilization (Fluo-4 AM) in control Chem-1 cells lacking the MRGPRX2 receptor; type: cell-based, human; settings: parent Chem-1 cells lacking MRGPRX2; FIG. 5B
# Protocol: (§1) MRGPRX2 expressing and control (non-MRGPRX2 expressing) Chem-1 cells lines were obtained from Discovery Services, EuroFins. Cells were cultured in Dulbecco's Modified Eagle Medium (DMEM) high glucose medium (4.5 g/L) with 10% fetal bovine serum (FBS), non-essential amino acids, and N-2-hydroxyethylpiperazine-N′-2-ethanesulfonic acid (HEPES) buffer (pH 7.0-7.6). Geneticin (G418) was used for selection of MRGPRX2-expressing Chem-1 cells. Cells were maintained at 37° C. at 5% CO2. Cells were seeded to a glass bottom 96-well plates at a density of 50,000 per well (Cellvis). Cells were loaded with Fluo-4 AM for 30 minutes at 37° C. at a concentration of 2.5 μM. Cells were washed once with Dulbecco's phosphate buffered saline (DPBS). Cells were rested at room temperature for 30 minutes before use and washed with DPBS. Cells were resuspended in 50 μL phosphate buffered saline (PBS) with calcium and magnesium. To stimulate cells, 50 μL of 2× drug (bevemipretide or leuprolide) or DPBS as a control. Plates were read immediately with a Biotek plate reader. Readings were taken every 6 seconds for 2 minutes.
# (§2) This assay was designed as a calcium-based readout of receptor activity.
# human MRGPRX2 [2] = target: T1, human MRGPRX2 (Homo sapiens, UniProt Q96LB1); assay: Calcium mobilization (Fluo-4 AM) in MRGPRX2 expressing Chem-1 cells; type: cell-based; set-up: host or cells: Chem-1 cells (G418-selected); settings: for activation of the MRGPRX2 expressing cells (calcium response): MRGPRX2 expressing Chem-1 cells, FIG. 5A, FIG. 6; for inhibition of the activation of the MRGPRX2 receptor caused by bevemipretide: MRGPRX2 expressing cells with 100 μM of bevemipretide, FIGS. 7A and 7B
# T1 sequence (Q96LB1 1-330): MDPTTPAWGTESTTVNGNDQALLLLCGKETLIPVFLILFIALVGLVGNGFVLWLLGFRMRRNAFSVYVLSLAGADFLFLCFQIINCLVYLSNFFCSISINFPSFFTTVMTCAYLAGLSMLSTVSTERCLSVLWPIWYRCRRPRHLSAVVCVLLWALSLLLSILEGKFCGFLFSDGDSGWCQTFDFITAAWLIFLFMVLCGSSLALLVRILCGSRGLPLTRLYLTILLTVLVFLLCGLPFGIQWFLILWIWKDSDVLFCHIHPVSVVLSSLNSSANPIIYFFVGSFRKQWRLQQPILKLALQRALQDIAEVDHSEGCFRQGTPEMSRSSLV
# Protocol: as §1, §2
# [3] = Phase 1 human clinical trial, subcutaneous administration; type: in vivo; settings: phase 1, subcutaneous administration
# [4] = Long term toxicology studies in rats, subcutaneous administration; type: in vivo
# [5] = Long term toxicology studies of non-human primates; type: in vivo
# human MRGPRX2 [6] = target: T1, human MRGPRX2; assay: Fluo-4 calcium assay in HEK293 cells stably expressing human MRGPRX2 and Galpha15 (fluorescent plate reader); type: cell-based; set-up: expressed in transfected cells; host or cells: clonal HEK293 cell line; settings: calcium response, multiple runs, FIG. 4
# Protocol: A clonal HEK293 cell line stably expressing human MRGPRX2 and Galpha15 was used for the assay, which was performed using a fluorescent plate reader. Cells were plated at 40,000 cells per well in a glass-bottom 96 well plate 20 hours before the assay. Cells were loaded with N-[4-[6-[(Acetyloxy)methoxy]-2,7-difluoro-3-oxo-3H-xanthen-9-yl]-2-[2-[2-[bis[2-[(acetyloxy)methoxy]-2-oxoethyl]amino]-5-methylphenoxy]ethoxy]phenyl]-N-[2-[(acetyloxy)methoxy]-2-oxoethyl]glycine (acetyloxy)methyl ester (Fluo-4 AM) for 45 minutes at 37°° C. and allowed to rest for 30 minutes before use. Baseline fluorescence was calculated as the average of a 30 second read, with data points taken at 5 second intervals. Response was defined as the maximum signal within 90 seconds after addition of bevemipretide, subtracted by the baseline fluorescence signal. Concentrations were tested in duplicate and the assay was run 6 times. The curve was calculated as a four-parameter non-linear fit with variable slope. Traces were obtained using the same cell line and same Fluo-4 AM loading protocol but were imaged using a fluorescence microscope using a standard fluorescein isothiocyanate (FITC) filter. Fluorescence for different cells was calculated using region of interest selections.
SMILES,effect on cells lacking the MRGPRX2 receptor (calcium response) [1],activation of the MRGPRX2 expressing cells (calcium response) (human MRGPRX2 [2]),inhibition of the activation of the MRGPRX2 receptor caused by bevemipretide (human MRGPRX2 [2]),also measured
"C[C@H](CCC(=O)O)C[C@H](C)C[C@H](C)C(=O)/C=C(\O)[C@H](C)C[C@H](C)C/C=C/[C@@H](C)[C@@H](O)[C@@H](C)[C@@H](O)C[C@@H]1CC[C@@](C)([C@H]2CC[C@@](C)([C@@H](C)O)O2)O1 [Ionomycin, reference compound]",generates a calcium response,generates a calcium response,–,–
Cc1cc(O)cc(C)c1C[C@H](NC(=O)[C@H](N)CCCNC(=N)N)C(=O)N[C@@H](CCCCN)c1nc(Cc2ccccc2)no1 [bevemipretide],no effect,dose dependent activation,–,injection site reactions [3]: injection site reactions were observed as an adverse event; injection site reactions [4]: injection site reactions were observed from subcutaneous administration; some being severe at the higher dose levels administered; injection site reactions [5]: generally not severe even at the highest dosages tested; EC50 (human MRGPRX2 [6]): 43.8 to 54.1 µM
CCNC(=O)[C@@H]1CCCN1C(=O)[C@H](CCCNC(=N)N)NC(=O)[C@H](CC(C)C)NC(=O)[C@@H](CC(C)C)NC(=O)[C@H](Cc1ccc(O)cc1)NC(=O)[C@H](CO)NC(=O)[C@H](Cc1c[nH]c2ccccc12)NC(=O)[C@H](Cc1c[nH]cn1)NC(=O)[C@@H]1CCC(=O)N1 [leuprolide],–,dose dependent activation,–,–
"C[C@@H]1C[C@H]2[C@@H]3CCC4=CC(=O)C=C[C@]4(C)[C@@]3(Cl)[C@@H](O)C[C@]2(C)[C@@]1(O)C(=O)CCl [monetasone, mometasone]",–,–,"in a dose-dependent manner, inhibit the activation",–
"O=c1c(O)c(-c2ccc(O)c(O)c2)oc2cc(O)cc(O)c12 [quercetin, 3,3′,4′,5,7-pentahydroxyflavone]",–,–,"in a dose-dependent manner, inhibit the activation",–
